Reference: ChEMBL document CHEMBL5303573, “Mapping human microbiome drug metabolism by gut bacteria and their genes” (Nature, 2019)

Tests used:
[1] = The drug is tested on Bacteroides pectinophilus strain: ATCC43243 for biotransformation. The drug concentrations were measured before and after a 12-h incubation by liquid-chromatography-coupled mass spectrometry (LC–MS); conditions: 2 µM
[2] = The drug is tested on Clostridium sp. strain: fecal isolate for biotransformation. The drug concentrations were measured before and after a 12-h incubation by liquid-chromatography-coupled mass spectrometry (LC–MS); conditions: 2 µM
[3] = bacteroides stercoris, 12 h, 2 µM
[4] = The drug is tested on Ruminococcus gnavus strain: ATCC29149 for biotransformation. The drug concentrations were measured before and after a 12-h incubation by liquid-chromatography-coupled mass spectrometry (LC–MS); conditions: mediterraneibacter gnavus, 2 µM
[5] = The drug is tested on Eubacterium hallii strain: DSM3353 for biotransformation. The drug concentrations were measured before and after a 12-h incubation by liquid-chromatography-coupled mass spectrometry (LC–MS); conditions: anaerobutyricum hallii, 2 µM
[6] = The drug is tested on Escherichia coli strain: BW25113 for biotransformation. The drug concentrations were measured before and after a 12-h incubation by liquid-chromatography-coupled mass spectrometry (LC–MS); conditions: 2 µM
[7] = The drug is tested on Coprococcus comes strain: ATCC27758 for biotransformation. The drug concentrations were measured before and after a 12-h incubation by liquid-chromatography-coupled mass spectrometry (LC–MS); format: ADME; design: dose 2 uM, timepoint 0 vs 12 hours; conditions: 2 µM
[8] = enterocloster bolteae, 12 h, 2 µM
[9] = The drug is tested on Bacteroides fragilis strain: ATCC43859 for biotransformation. The drug concentrations were measured before and after a 12-h incubation by liquid-chromatography-coupled mass spectrometry (LC–MS); conditions: 2 µM
[10] = The drug is tested on Eubacterium rectale strain: ATCC33656 for biotransformation. The drug concentrations were measured before and after a 12-h incubation by liquid-chromatography-coupled mass spectrometry (LC–MS); conditions: agathobacter rectalis, 2 µM
[11] = The drug is tested on Eubacterium ventriosum strain: ATCC27560 for biotransformation. The drug concentrations were measured before and after a 12-h incubation by liquid-chromatography-coupled mass spectrometry (LC–MS); format: ADME; design: dose 2 uM, timepoint 0 vs 12 hours; conditions: 2 µM
[12] = The drug is tested on Ruminococcus lactaris strain: ATCC29176 for biotransformation. The drug concentrations were measured before and after a 12-h incubation by liquid-chromatography-coupled mass spectrometry (LC–MS); conditions: 2 µM
[13] = The drug is tested on Bacteroides ovatus strain: ATCC8483 for biotransformation. The drug concentrations were measured before and after a 12-h incubation by liquid-chromatography-coupled mass spectrometry (LC–MS); conditions: 2 µM
[14] = The drug is tested on Bacteroides dorei strain: DSM17855 for biotransformation. The drug concentrations were measured before and after a 12-h incubation by liquid-chromatography-coupled mass spectrometry (LC–MS); conditions: phocaeicola dorei, 2 µM
[15] = The drug is tested on Parabacteroides merdae strain: ATCC43184 for biotransformation. The drug concentrations were measured before and after a 12-h incubation by liquid-chromatography-coupled mass spectrometry (LC–MS); conditions: 2 µM
[16] = parabacteroides distasonis, 12 h, 2 µM
[17] = The drug is tested on Blautia hansenii strain: DSM20583 for biotransformation. The drug concentrations were measured before and after a 12-h incubation by liquid-chromatography-coupled mass spectrometry (LC–MS); conditions: 2 µM
[18] = The drug is tested on Bifidobacterium longum subsp. Infantis strain: CCUG52486 for biotransformation. The drug concentrations were measured before and after a 12-h incubation by liquid-chromatography-coupled mass spectrometry (LC–MS); conditions: 2 µM

Row | Compound | Bacterial Biotransformation [1] | Bacterial Biotransformation [2] | Bacterial Biotransformation [3] | Bacterial Biotransformation [4] | Bacterial Biotransformation [5] | Bacterial Biotransformation [6] | Bacterial Biotransformation [7] | Bacterial Biotransformation [8] | Bacterial Biotransformation [9] | Bacterial Biotransformation [10] | Bacterial Biotransformation [11] | Bacterial Biotransformation [12] | Bacterial Biotransformation [13] | Bacterial Biotransformation [14] | Bacterial Biotransformation [15] | Bacterial Biotransformation [16] | Bacterial Biotransformation [17] | Bacterial Biotransformation [18]
1 | Nc1nnc(-c2cccc(Cl)c2Cl)c(N)n1 [LAMOTRIGINE] | Compound NOT metabolized | Compound NOT metabolized | Compound NOT metabolized | Compound NOT metabolized | Compound NOT metabolized | Compound NOT metabolized | Compound NOT metabolized | Compound NOT metabolized | Compound NOT metabolized | Compound NOT metabolized | Compound NOT metabolized | Compound NOT metabolized | Compound NOT metabolized | Compound NOT metabolized | – | – | – | –
2 | Cc1ccc(NC(=O)c2ccc(CN3CCN(C)CC3)cc2)cc1Nc1nccc(-c2cccnc2)n1 [IMATINIB] | – | – | Compound NOT metabolized | Compound NOT metabolized | – | – | Compound NOT metabolized | Compound NOT metabolized | Compound NOT metabolized | – | Compound NOT metabolized | Compound NOT metabolized | Compound NOT metabolized | Compound NOT metabolized | Compound NOT metabolized | Compound NOT metabolized | Compound NOT metabolized | –
3 | CC(C)(C(=O)O)c1ccc(C(O)CCCN2CCC(C(O)(c3ccccc3)c3ccccc3)CC2)cc1 (stereo unspecified) [FEXOFENADINE] | Compound NOT metabolized | Compound NOT metabolized | Compound NOT metabolized | Compound NOT metabolized | Compound NOT metabolized | – | – | Compound NOT metabolized | Compound NOT metabolized | Compound NOT metabolized | – | – | Compound NOT metabolized | Compound NOT metabolized | Compound NOT metabolized | – | Compound NOT metabolized | Compound NOT metabolized
4 | CC(=O)OCC(CCn1cnc2cnc(N)nc21)COC(C)=O [FAMCICLOVIR] | Compound NOT metabolized | Compound NOT metabolized | Compound metabolized | Compound NOT metabolized | Compound NOT metabolized | – | Compound NOT metabolized | Compound NOT metabolized | Compound metabolized | Compound NOT metabolized | Compound NOT metabolized | Compound NOT metabolized | Compound metabolized | Compound metabolized | Compound metabolized | Compound metabolized | Compound NOT metabolized | Compound metabolized
5 | CN(C)C(=O)Oc1cccc([N+](C)(C)C)c1.[Br-] [NEOSTIGMINE BROMIDE] | Compound NOT metabolized | Compound NOT metabolized | Compound NOT metabolized | Compound NOT metabolized | – | Compound NOT metabolized | Compound NOT metabolized | Compound NOT metabolized | – | Compound NOT metabolized | Compound NOT metabolized | Compound NOT metabolized | Compound metabolized | Compound metabolized | Compound metabolized | Compound NOT metabolized | – | Compound NOT metabolized
